# Test results as given in paper PMC3005981 (Basic & clinical pharmacology & toxicology, 2010).
# How the values were obtained:
# [1] = target: CYP3A4 (Homo sapiens, UniProt P08684); assay: in vitro; details: recombinant enzyme, Supersome
# [2] = target: CYP2D6 (Homo sapiens, UniProt P10635); assay: in vitro; details: recombinant enzyme
# [3] = system: CYP2D6; assay: Inhibition of methadone N-demethylation; details: human, microsomes, Inhibition of (R)- and (S)-EDDP formation, HLM with high CYP2D6 activity
# [4] = system: CYP3A4/5; assay: in vitro; details: human, microsomes, HLM
# [5] = most incubates; limit of detection approximately 1.0 ng/ml
# [6] = system: CYP1A2; assay: Methadone metabolism in cDNA-expressed CYP Supersomes, with abundance scaling
# [7] = system: CYP2A6; assay: as above
# [8] = system: CYP2B6; assay: as above
# [9] = system: CYP2C8; assay: as above
# [10] = system: CYP2C9*1; assay: as above
# [11] = system: CYP2C18; assay: as above; details: Abundance from Immunquantitation
# [12] = system: CYP2C19; assay: as above
# [13] = system: CYP2D6*1; assay: as above
# [14] = system: CYP3A4; assay: as above
# [15] = system: CYP3A (testosterone 6β-hydroxylation); assay: Correlation of EDDP formation with CYP-specific activity in 15 phenotyped HLMs; details: 15 HLMs; 750 ng/ml methadone, 0.5 mg/ml protein, 30 min; p<0.05
# [16] = % Inhibition of (R)-EDDP production
# [17] = % Inhibition of (S)-EDDP production
# [18] = Abundance from Immunquantitation
# [19] = Abundance from Relative Activity Factor
# Chain of CYP3A4 (Homo sapiens, UniProt P08684) (P08684 whole entry): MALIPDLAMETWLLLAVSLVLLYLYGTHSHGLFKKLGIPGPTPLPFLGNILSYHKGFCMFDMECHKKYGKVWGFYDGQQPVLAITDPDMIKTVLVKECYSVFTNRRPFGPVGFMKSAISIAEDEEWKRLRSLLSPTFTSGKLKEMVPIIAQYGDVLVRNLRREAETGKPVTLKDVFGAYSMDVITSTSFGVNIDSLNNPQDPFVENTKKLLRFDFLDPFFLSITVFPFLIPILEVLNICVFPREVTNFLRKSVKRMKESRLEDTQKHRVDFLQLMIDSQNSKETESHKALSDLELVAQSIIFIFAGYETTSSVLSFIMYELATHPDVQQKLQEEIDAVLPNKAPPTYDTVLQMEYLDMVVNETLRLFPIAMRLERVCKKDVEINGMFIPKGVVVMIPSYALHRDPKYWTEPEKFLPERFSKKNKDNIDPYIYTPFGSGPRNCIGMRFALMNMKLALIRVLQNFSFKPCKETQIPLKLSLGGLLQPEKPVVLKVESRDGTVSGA
# Chain of CYP2D6 (Homo sapiens, UniProt P10635) (P10635 whole entry): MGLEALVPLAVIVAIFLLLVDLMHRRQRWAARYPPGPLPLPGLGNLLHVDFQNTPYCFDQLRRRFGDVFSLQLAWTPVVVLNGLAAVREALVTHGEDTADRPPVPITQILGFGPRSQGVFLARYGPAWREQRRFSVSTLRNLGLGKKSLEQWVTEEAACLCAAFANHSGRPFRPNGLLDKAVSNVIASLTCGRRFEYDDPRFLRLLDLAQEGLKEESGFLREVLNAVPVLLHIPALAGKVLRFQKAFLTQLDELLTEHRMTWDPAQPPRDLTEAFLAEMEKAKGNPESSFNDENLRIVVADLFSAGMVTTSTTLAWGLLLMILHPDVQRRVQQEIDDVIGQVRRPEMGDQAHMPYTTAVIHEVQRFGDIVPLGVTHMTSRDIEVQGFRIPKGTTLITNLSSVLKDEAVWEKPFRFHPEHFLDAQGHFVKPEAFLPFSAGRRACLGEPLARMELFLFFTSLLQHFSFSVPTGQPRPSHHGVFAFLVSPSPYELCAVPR
structure (smiles),measurement,setting,value
"O=C(c1ccc(OCCN2CCCCC2)cc1)c1c(-c2ccc(O)cc2)sc2cc(O)ccc12 [Raloxifene, raloxifene]","inhibition at 15 min, 30 µM",[1]; [16],96.8%
same,"inhibition at 15 min, 30 µM",[1]; [17],97.2%
"Fc1ccc([C@@H]2CCNC[C@H]2COc2ccc3c(c2)OCO3)cc1 [Paroxetine, paroxetine]","inhibition at 30 min, 1 µM","[2]; % Inhibition of (R)-EDDP production, Supersome",9.9%
same,"inhibition at 30 min, 1 µM","[2]; % Inhibition of (S)-EDDP production, Supersome",7.6%
same,"inhibition at 30 min, 1 µM",[2]; Inhibition of Supersome 2D6 activity,< 30%
same,"inhibition at 30 min, 1 µM",[3]; 1 µM,< 30%
"NNC(=O)c1ccncc1 [Isoniazid, isoniazid]","inhibition at 15 min, 500 µM",[4]; [16],70.8%
same,"inhibition at 15 min, 500 µM",[4]; [17],51.4%
same,"inhibition at 15 min, 500 µM",[1]; [16],96.9%
same,"inhibition at 15 min, 500 µM",[1]; [17],96.9%
"CCC1=NC(C)CC1(c1ccccc1)c1ccccc1 (stereo not drawn) [EMDP, 2-ethyl-5-methyl-3,3-diphenylpyraline]",EMDP production from methadone,[5],no EMDP production was noted
CC=C1N(C)[C@H](C)CC1(c1ccccc1)c1ccccc1 [(R)-EDDP],Scaled contribution of CYP to formation of R- and S-EDDP,[6]; [18],0.0%
same,Scaled contribution of CYP to formation of R- and S-EDDP,[6]; [19],0.0%
same,Scaled contribution of CYP to formation of R- and S-EDDP,[7]; [18],0.0%
same,Scaled contribution of CYP to formation of R- and S-EDDP,[7]; [19],0.0%
same,Scaled contribution of CYP to formation of R- and S-EDDP,[8]; [18],11.5%
same,Scaled contribution of CYP to formation of R- and S-EDDP,[8]; [19],17.8%
same,Scaled contribution of CYP to formation of R- and S-EDDP,[9]; [18],0.4%
same,Scaled contribution of CYP to formation of R- and S-EDDP,[9]; [19],0.9%
same,Scaled contribution of CYP to formation of R- and S-EDDP,[10]; [18],1.2%
same,Scaled contribution of CYP to formation of R- and S-EDDP,[10]; [19],3.7%
same,Scaled contribution of CYP to formation of R- and S-EDDP,[11],0.7%
same,Scaled contribution of CYP to formation of R- and S-EDDP,[12]; [18],14.4%
same,Scaled contribution of CYP to formation of R- and S-EDDP,[12]; [19],5.8%
same,Scaled contribution of CYP to formation of R- and S-EDDP,[13]; [18],1.0%
same,Scaled contribution of CYP to formation of R- and S-EDDP,[13]; [19],0.5%
same,Scaled contribution of CYP to formation of R- and S-EDDP,[14]; [18],70.7%
same,Scaled contribution of CYP to formation of R- and S-EDDP,[14]; [19],71.3%
same,Correlation (r) of EDDP formation with testosterone 6β-hydroxylation catalyzed by CYP3A,[15],0.82
CC=C1N(C)[C@@H](C)CC1(c1ccccc1)c1ccccc1 [(S)-EDDP],Scaled contribution of CYP to formation of R- and S-EDDP,[6]; [18],0.0%
same,Scaled contribution of CYP to formation of R- and S-EDDP,[6]; [19],0.0%
same,Scaled contribution of CYP to formation of R- and S-EDDP,[7]; [18],0.0%
same,Scaled contribution of CYP to formation of R- and S-EDDP,[7]; [19],0.0%
same,Scaled contribution of CYP to formation of R- and S-EDDP,[8]; [18],18.5%
same,Scaled contribution of CYP to formation of R- and S-EDDP,[8]; [19],26.7%
same,Scaled contribution of CYP to formation of R- and S-EDDP,[9]; [18],0.2%
same,Scaled contribution of CYP to formation of R- and S-EDDP,[9]; [19],0.4%
same,Scaled contribution of CYP to formation of R- and S-EDDP,[10]; [18],0.4%
same,Scaled contribution of CYP to formation of R- and S-EDDP,[10]; [19],1.1%
same,Scaled contribution of CYP to formation of R- and S-EDDP,[11],0.9%
same,Scaled contribution of CYP to formation of R- and S-EDDP,[12]; [18],4.4%
same,Scaled contribution of CYP to formation of R- and S-EDDP,[12]; [19],1.6%
same,Scaled contribution of CYP to formation of R- and S-EDDP,[13]; [18],1.3%
same,Scaled contribution of CYP to formation of R- and S-EDDP,[13]; [19],0.6%
same,Scaled contribution of CYP to formation of R- and S-EDDP,[14]; [18],74.3%
same,Scaled contribution of CYP to formation of R- and S-EDDP,[14]; [19],69.6%
same,Correlation (r) of EDDP formation with testosterone 6β-hydroxylation catalyzed by CYP3A,[15],0.54
"C=C[C@H]1C[N@@]2CC[C@H]1C[C@@H]2[C@@H](O)c1ccnc2ccc(OC)cc12 [Quinidine, quinidine]","inhibition at 30 min, 10 µM",[3]; 10 µM,< 30%
